Values of other authors in article PMC7504348 (Molecules, 2020).

Test system: AChE
Conditions: dataset for 2D-QSAR model, Ellman's method, galantamine as reference; cited from earlier work

Row | Compound | pIC50 (AChE dataset, Table S4)
1 | CCC[C@H](NC(=O)OCC(Cl)(Cl)Cl)C(=O)N[C@H](C)c1nc2ccc(F)cc2s1 [CHEMBL2334736] | 4.72
2 | CC(C)COC(=O)N[C@H](C(=O)N[C@H](C)c1nc2ccc(F)cc2s1)C(C)C [CHEMBL2334745] | 4.49
3 | O=C(Nc1ccc(Cl)cc1)Nc1nc(-c2cc3cc([N+](=O)[O-])ccc3o2)cs1 [CHEMBL3617397] | 4.52
4 | Fc1ccccc1/C=C1\CNCC2=C1NC(=S)NC2c1ccccc1F (stereo not shown) [CHEMBL2385777] | 4.34
5 | COc1ccc2c(c1)[nH]c1cccc(CNC(C)C)c12 [CHEMBL3127216] | 4.84
6 | Cc1ccc(NC(=O)Nc2nc(-c3cc4cc(Br)ccc4o3)cs2)cc1 [CHEMBL3617381] | 4.49
7 | CCC[C@H](NC(=O)OCC)C(=O)N[C@H](C)c1nc2ccc(F)cc2s1 [CHEMBL2334730] | 4.64
8 | Cc1nccc2c1[nH]c1ccccc12 [CHEMBL12014] | 4.23
9 | O=C(Nc1nc(-c2cc3ccccc3o2)cs1)Nc1ccccc1[N+](=O)[O-] [CHEMBL3617367] | 4.38
10 | Cc1ccc(CN(C(=O)/C=C/C(=O)N(Cc2ccc(C)cc2)c2ccc(F)cc2)c2ccc(F)cc2)cc1 [CHEMBL2296124] | 4.33
11 | OC[C@H]1O[C@@H](Oc2ccc(/C=N/O)cc2)[C@H](O)[C@@H](O)[C@@H]1O [CHEMBL457684] | 4.78
12 | c1ccc(CNc2ccccc2)cc1 [CHEMBL237223] | 4.59
13 | COc1cc(/C=C/c2ccc(OCCCCCCN3CCCCC3)cc2)cc(OC)c1 [CHEMBL3133245] | 5.36
14 | O=C1NC2=C(CNC/C2=C\c2ccc(Cl)cc2Cl)C(c2ccc(Cl)cc2Cl)N1 (stereo not shown) [CHEMBL2385772] | 4.48
15 | O=C(Nc1ccc(Cl)c(Cl)c1)Nc1nc(-c2cc3ccccc3o2)cs1 [CHEMBL3617375] | 4.28
16 | CC1=NCCc2c1[nH]c1cc(O)ccc21 [CHEMBL129177] | 4.47
17 | COc1cc(/C=C/c2ccc(OCCCN(C)Cc3ccccc3)cc2)cc(OC)c1 [CHEMBL3133250] | 4.29
18 | COC(=O)[C@@H]1CCCN1CCCCCOc1ccc2c(=O)cc(-c3ccccc3)oc2c1C [CHEMBL2393074] | 4.75
19 | O=[N+]([O-])c1cccc(/C=C2\CNCC3=C2NC(=S)NC3c2cccc([N+](=O)[O-])c2)c1 (stereo not shown) [CHEMBL2385779] | 4.42
20 | COc1ccc2c(c1)[nH]c1c(C)nccc12 [CHEMBL269538] | 4.19
21 | COc1ccc(NC(=O)Nc2nc(-c3cc4cc([N+](=O)[O-])ccc4o3)cs2)cc1 [CHEMBL3617393] | 4.47
22 | COc1cc2ccnc3c2c(c1OC)-c1ccccc1C3=O [CHEMBL510090] | 4.72
23 | O=C(O[C@H]1[C@H](Oc2ccc(/C=N/O)cc2)OC[C@@H](OC(=O)c2ccccc2)[C@H]1OC(=O)c1ccccc1)c1ccccc1 [CHEMBL500712] | 4.40
24 | CCN(CC)Cc1cccc2oc3cc(OC)ccc3c12 [CHEMBL3127043] | 4.98

Row | Compound | pIC50 (AChE dataset, Table S4)
25 | COc1cc2c(cc1O)C=[N+](C)CC2.O=C([O-])C(F)(F)F [CHEMBL1270150] | 4.73
26 | CC(C)[C@H](NC(=O)OCC(F)(F)C(F)(F)C(F)(F)F)C(=O)N[C@H](C)c1nc2ccc(F)cc2s1 [CHEMBL2334728] | 4.24
27 | S=C1NC2=C(CNC/C2=C\c2ccc(Cl)cc2Cl)C(c2ccc(Cl)cc2Cl)N1 (stereo not shown) [CHEMBL2385784] | 4.53
28 | O=C(Nc1ccc(F)cc1)Nc1nc(-c2cc3ccccc3o2)cs1 [CHEMBL3617372] | 4.26
29 | CCc1ccc(N(Cc2ccccc2)C(=O)/C=C/C(=O)N(Cc2ccccc2)c2ccc(CC)cc2)cc1 [CHEMBL2296113] | 4.21
30 | CCCN(CCC)CCCCCCOc1ccc(/C=C/c2cc(OC)cc(OC)c2)cc1 [CHEMBL3133243] | 4.97
31 | CO/N=C\c1ccc(O[C@@H]2O[C@H](COC(C)=O)[C@@H](OC(C)=O)[C@H](OC(C)=O)[C@H]2OC(C)=O)cc1 [CHEMBL463856] | 4.33
32 | CCN(CC)Cc1cccc2[nH]c3cc(OC)ccc3c12 [CHEMBL3127217] | 4.99
33 | CCOC(=O)c1c(C)nc2nc3c(c(N)c2c1-c1ccccc1)CCCC3 [CHEMBL253386] | 5.49
34 | COc1cccc2c1C(=O)c1c(C)cc(=O)[nH]c1C2=O [CHEMBL1269160] | 4.57
35 | CCC[C@H](NC(=O)OCC(F)(F)F)C(=O)N[C@H](C)c1nc2ccc(F)cc2s1 [CHEMBL2334737] | 4.71
36 | COc1cc(/C=C/c2ccc(OCCCCCCN3CCOCC3)cc2)cc(OC)c1 [CHEMBL3133248] | 4.66
37 | COc1cc(/C=C/c2ccc(OCCCCCCN3CCC(O)CC3)cc2)cc(OC)c1 [CHEMBL3133247] | 4.81
38 | O=C(Nc1ccc(F)cc1)Nc1nc(-c2cc3cc(Br)ccc3o2)cs1 [CHEMBL3617388] | 4.45
39 | O=C(Nc1ccccc1)Nc1nc(-c2cc3cc(Br)ccc3o2)cs1 [CHEMBL3617382] | 4.63
40 | CCOc1ccc(N(Cc2ccccc2)C(=O)/C=C/C(=O)N(Cc2ccccc2)c2ccc(OCC)cc2)cc1 [CHEMBL2296117] | 4.18
41 | O=C(Nc1nc(-c2cc3ccccc3o2)cs1)Nc1ccccc1F [CHEMBL3617370] | 4.51
42 | COc1cc(/C=C/c2ccc(OCCCCCCN3CCCCC3C)cc2)cc(OC)c1 (stereo not shown) [CHEMBL3133246] | 5.45
43 | COc1ccc2c3c([nH]c2c1)C(C)=NCC3 [CHEMBL340807] | 4.80
44 | CC(C)[C@H](NC(=O)OCC(F)(F)C(F)F)C(=O)N[C@H](C)c1nc2ccc(F)cc2s1 [CHEMBL2334727] | 4.72
45 | CCN(CC)Cc1ccc(OCCCCCCCCCCN2CCCCC2)cc1 [CHEMBL1085869] | 5.67
46 | CCC[C@H](NC(=O)OC(C)C)C(=O)N[C@H](C)c1nc2ccc(F)cc2s1 [CHEMBL2334732] | 4.86
47 | CC(C)[C@H](NC(=O)OCCBr)C(=O)N[C@H](C)c1nc2ccc(F)cc2s1 [CHEMBL2334747] | 4.51
48 | S=C1NC2=C(CNC/C2=C\c2ccc(Br)cc2)C(c2ccc(Br)cc2)N1 (stereo not shown) [CHEMBL2385780] | 4.88

Row | Compound | pIC50 (AChE dataset, Table S4)
49 | CN(C)CCc1c[nH]c2ccc(O)cc12 [CHEMBL416526] | 4.94
50 | CCC[C@H](NC(=O)OCC(F)(F)C(F)F)C(=O)N[C@H](C)c1nc2ccc(F)cc2s1 [CHEMBL2334738] | 4.69
51 | CCC[C@H](NC(=O)OCC(F)(F)C(F)(F)C(F)(F)F)C(=O)N[C@H](C)c1nc2ccc(F)cc2s1 [CHEMBL2334739] | 4.52
52 | COc1cc2c(cc1O)C[N@+]1(C)CCc3cc(OC)c(OC)cc3[C@@H]1C2 [CHEMBL1270255] | 5.01
53 | O=C1NC2=C(CNC/C2=C\c2ccc(Br)cc2)C(c2ccc(Br)cc2)N1 (stereo not shown) [CHEMBL2385768] | 4.75
54 | COc1ccc(NC(=O)Nc2nc(-c3cc4cc(Br)ccc4o3)cs2)cc1 [CHEMBL3617380] | 4.49
55 | O=C(Nc1ccc(F)cc1)Nc1nc(-c2cc3cc([N+](=O)[O-])ccc3o2)cs1 [CHEMBL3617396] | 4.39
56 | COc1cc(CCC(=O)C2=C(CCc3ccc(O)c(OC)c3)NC(=O)NC2c2ccc(O)cc2)ccc1O (stereo not shown) [CHEMBL2381433] | 4.58
57 | CCc1ccc(N(Cc2ccc(C)cc2)C(=O)/C=C/C(=O)N(Cc2ccc(C)cc2)c2ccc(CC)cc2)cc1 [CHEMBL2296112] | 4.25
58 | O=C1NC2=C(CNC/C2=C\c2cccc3ccccc23)C(c2cccc3ccccc23)N1 (stereo not shown) [CHEMBL2385773] | 4.83
59 | CC(C)[C@H](NC(=O)OCC(F)(F)F)C(=O)N[C@H](C)c1nc2ccc(F)cc2s1 [CHEMBL2334726] | 4.49
60 | CC(=O)OC[C@H]1O[C@@H](Oc2ccc(/C=N/NC(N)=S)cc2)[C@H](OC(C)=O)[C@@H](OC(C)=O)[C@@H]1OC(C)=O [CHEMBL517342] | 4.19
61 | NCCc1c(C(c2c[nH]c3ccccc23)C(O)CO)[nH]c2ccc(O)cc12 (stereo not shown) [CHEMBL3125443] | 4.90
62 | COc1ccc(C2NC(=O)NC(CCc3ccc(O)c(OC)c3)=C2C(=O)CCc2ccc(O)c(OC)c2)cc1 (stereo not shown) [CHEMBL2381434] | 4.67
63 | COc1ccccc1NC(=O)Nc1nc(-c2cc3ccccc3o2)cs1 [CHEMBL3617362] | 4.22
64 | COc1ccccc1/C=C1\CNCC2=C1NC(=O)NC2c1ccccc1OC (stereo not shown) [CHEMBL2385766] | 4.35
65 | Cc1ccc(CN(C(=O)/C=C/C(=O)N(Cc2ccc(C)cc2)c2ccc(I)cc2)c2ccc(I)cc2)cc1 [CHEMBL2296125] | 4.46
66 | COc1cc(/C=C/c2ccc(OCCCCCCN(C)Cc3ccccc3)cc2)cc(OC)c1 [CHEMBL3132866] | 4.98
67 | CC(C)NCc1cccc2[nH]c3cc(O)ccc3c12 [CHEMBL3127219] | 4.92
68 | CC(C)[C@H](NC(=O)OCC(Cl)(Cl)Cl)C(=O)N[C@H](C)c1nc2ccc(F)cc2s1 [CHEMBL2334725] | 4.70
69 | COc1ccc2c(ccc[n+]2C)c1.[I-] [CHEMBL2018160] | 4.63
70 | O=C1NC2=C(CNC/C2=C\c2ccc(F)cc2)C(c2ccc(F)cc2)N1 (stereo not shown) [CHEMBL2385771] | 4.30
